Test results published in patent EP0037777A1, “Process for preparation of cycloalcoyl propanol amines useful as medicine” (PIERRE FABRE S.A., priority 1980, dated 1981).
Values after ≈ are worked out from the molar mass of the structure shown. Counter-ions that a name gives are not always drawn.

Assay: Solubility
Format: physicochemical
Settings: for Solubilités : soluble dans le diméthyl sulfoxyde: in dimethyl sulfoxide (DMSO); for solubility: in water, read-out: Solubilités : soluble dans l'eau

Row | SMILES | Solubilités : soluble dans le diméthyl sulfoxyde | solubility
1 | CC(C)(C)NCC(O)COCC1CC=CCC1 (centres unmarked) [Exemple 8, tertiobutylamino-3 (cyclohexen-3 yl-1) méthoxy-1 propanol-2, maléate] | 15% | 100 mg/mL (≈ 414 mM)
2 | CC1CCCCC1OCC(O)CNC(C)(C)C (centres unmarked) [Exemple 1, tertiobutylamino-3 (méthyl-2 cyclohexyloxy)-1 propanol-2, maléate] | 15% | 100 mg/mL (≈ 411 mM)
3 | CC(C)(C)NCC(O)COCCC1=CCC2CC1C2(C)C (centres unmarked) [Exemple 6, tertiobutylamino-3 [(diméthyl-6-6, bicyclo (3,1,1)hepten-2 yl)-2 éthoxy7-1 propanol-2, maléate] | 10% | 20 mg/mL (≈ 67.7 mM)
4 | C#CC(C)(C)NCC(O)COC1CCCCC1 (centres unmarked) [Exemple 3, (diméthyl-1,1 propyne-2 yl-1) amino-3, cyclohexyloxy-1 propanol-2 oxalate] | – | 20 mg/mL
5 | CC(C)NCC(O)COCC1CCCCC1 (centres unmarked) [Exemple 4, isopropylamino-3, cyclohexyl méthoxy-1 propanol-2 maléate] | 18% | 100 mg/mL (≈ 436 mM)
6 | CC(C)(C)NCC(O)COCC1CCCCC1 (centres unmarked) [Exemple 5, tertiobutylamino-3 cyclohexyl méthoxy-1, propanol-2, maléate] | 10% | 25 mg/mL (≈ 103 mM)
